Results taken from ChEMBL document CHEMBL3045396, “Easy Preparation of Methyl 7-epi-Jasmonate and Four Stereoisomers of Methyl Cucurbate, and Assessment of the Stereogenic Effect of Jasmonate on Phytohormonal Activities” (Biosci Biotechnol Biochem, 1999).
The source made the active and inactive calls. The calls are words filed in the database; no cut-off is given here.

What was measured:
Oryza sativa = assay: Phytohormonal activity against Oryza sativa (rice) seedlings assessed as growth inhibition of second leaf sheath at 1 to 300 uM after 5 days relative to control; format: functional, organism-based
Lepidium sativum = assay: Phytohormonal activity against Lepidium sativum assessed as inhibition of seed germination at 100 to 1000 uM after 2 days relative to control; format: functional, organism-based

| SMILES | growth inhibition (GI) (Oryza sativa) | inhibition (Lepidium sativum) |
| --- | --- | --- |
| CC/C=C\C[C@@H]1[C@@H](CC(=O)OC)CC[C@H]1O | inactive | inactive |
| CC/C=C\C[C@H]1C(=O)CC[C@@H]1CC(=O)OC (racemic) | Active | Active |
| CC/C=C\C[C@@H]1C(=O)CC[C@@H]1CC(=O)OC | Active | Active |
| CC/C=C\C[C@H]1[C@@H](CC(=O)OC)CC[C@H]1O | Active | Active |
| CC/C=C\C[C@H]1C(=O)CC[C@@H]1CC(=O)O | Active | – |
| CC/C=C\C[C@H]1[C@@H](CC(=O)O)CC[C@@H]1O | inactive | – |
| CC/C=C\C[C@H]1[C@@H](CC(=O)OC)CC[C@@H]1O | Active | Active |
| CC/C=C\C[C@@H]1[C@@H](CC(=O)OC)CC[C@@H]1O | inactive | inactive |
